“Also recorded” adds a separate entry of the source.
Legend:
Na+/H+ exchanger [1] = assay: Na+/H+ exchanger activity in BCECF-loaded SH-SY5Y-AT1A cells; assay type: cell-based, human
Method: Similarly, Na^+/H^+ exchanger activity was measured in response to angiotensin II at the individual cell level in BCECF-loaded SH-SY5Y-AT1A cells. […] Exposing the cells to BAPTA-AM (10 μM) prior to angiotensin II, prevented the angiotensin II-induced increase in Na^+/H^+ exchanger activity.

[2] = tested on: cardiac sympathetic nerve endings; assay: angiotensin II-evoked norepinephrine release from cardiac sympathetic nerve endings; details: for decrease of angiotensin II-induced norepinephrine release / effect on norepinephrine release induced by angiotensin II (FIG. 20): EIPA 30 μM, U-73122 1 μM; for decrease of angiotensin II-induced norepinephrine release: DMI 300 nM; for effect on norepinephrine release induced by angiotensin II (FIG. 20): DMI 300 μM
Method: Briefly, male Hartley guinea pigs were anesthetized with CO2 vapor and then exsanguinated. Hearts were perfused through the aorta for 15 min at constant pressure with Ringer's solution at 37° C. […] Hearts were minced in 0.32 M sucrose containing 1 mM EGTA. The minced tissue was then digested with 75 mg collagenase per 10 ml HBS per gm for 1 hr at 37° C. After low speed centrifugation the resulting pellet were suspended in 10 volumes of 0.32 M sucrose and homogenized with a Teflon/glass homogenizer. The homogenate was centrifuged at 650g for 10 min, the pellet was re-homogenized and the homogenate was centrifuged again. The pellet containing cellular debris was discarded, the supernatants from the last two spins were combined, the pooled supernatant was equally subdivided into 4 to 8 tubes and re-centrifuged for 20 min at 20,000g at 4° C. This pellet contains cardiac sympathetic nerve endings. The pellet was resuspended either in HEPES-buffered saline (HBS; 500 μl, normoxic conditions) or in glucose-free HBS, which contained the reducing agent sodium dithionite (500 μl, ischemic conditions), and incubated in the absence or presence of angiotensinogen (1 hr) or other agents for 20 min at 37° C. prior to ischemia (see below). Each suspension was used only once as an independent sample.
Norepinephrine assay: Coronary effluent and synaptosome supernatant will be assayed for NE by HPLC with electrochemical detection (ESA). […] The detection limit is about 0.2 pmol.

SH-SY5Y-AT1A cells [3] = assay: [3H]MPP+ release from SH-SY5Y-AT1A cells
Description: Efflux was arrested after 10-min exposure to angiotensin II.

SH-SY5Y-AT1A cells [4] = assay: intracellular calcium in Fura-2 loaded SH-SY5Y-AT1A cells; assay type: cell-based, human
Method: The next series of experiments were used to outline the major signaling steps in angiotensin II-evoked release of norepinephrine from sympathetic nerve endings. In particular, experiments were designed to ascertain whether stimulation of PLC might result in an increase in intracellular calcium via IP3 generation. Intracellular calcium (Cai) was measured at the individual cell level using Fura-2 loaded SH-SY5Y-AT1A cells (McDonald et al., Neurosci. Lett. 199: 115-118, 1995; Silver et al., Proc. Natl. Acad. Sci. USA 99: 501-506, 2002).
As discussed above, PLC activation may be an early signaling step in mediating this angiotensin II-induced Ca^2+ transient. The PLC inhibitor U-73122 (1 μM) was used to verify this hypothesis. FIG. 21B is a representative trace from one Fura-2 loaded SH-SY5Y-ATIA cell pre-exposed to U-73122.

human lung mast cells = details: cited from earlier work
[5] = tested on: cardiac sympathetic nerve endings; assay: norepinephrine release from isolated cardiac sympathetic nerve endings incubated with angiotensinogen; assay type: cell-based, guinea pig
Description: Preparation ofguinea-pig sympathetic nerve endings: Cardiac sympathetic nerve endings were isolated from guinea-pig hearts as previously described (Seyedi et al., J Pharmacol Exp Ther 290: 656-663, 1999; Seyedi et al., Circ. Res. 81: 774-784, 1997). Spontaneously beating hearts were isolated as previously described by the inventors (Hatta et al., J. Pharmacol. Exp. Ther. 288: 919-927, 1999; Park et al., Circ. Res. 71: 992-1001, 1992). Briefly, male Hartley guinea pigs were anesthetized with CO2 vapor and then exsanguinated. Hearts were perfused through the aorta for 15 min at constant pressure with Ringer's solution at 37° C. (Park et al., Circ. Res. 71: 992-1001, 1992) to exclude blood from the coronary circulation. Hearts were minced in 0.32 M sucrose containing 1 mM EGTA. The minced tissue was then digested with 75 mg collagenase per 10 ml HBS per gm for 1 hr at 37° C. After low speed centrifugation the resulting pellet were suspended in 10 volumes of 0.32 M sucrose and homogenized with a Teflon/glass homogenizer. The homogenate was centrifuged at 650g for 10 min, the pellet was re-homogenized and the homogenate was centrifuged again. The pellet containing cellular debris was discarded, the supernatants from the last two spins were combined, the pooled supernatant was equally subdivided into 4 to 8 tubes and re-centrifuged for 20 min at 20,000g at 4° C. This pellet contains cardiac sympathetic nerve endings. The pellet was resuspended either in HEPES-buffered saline (HBS; 500 μl, normoxic conditions) or in glucose-free HBS, which contained the reducing agent sodium dithionite (500 μl, ischemic conditions), and incubated in the absence or presence of angiotensinogen (1 hr) or other agents for 20 min at 37° C. prior to ischemia (see below). Each suspension was used only once as an independent sample.
Norepinephrine assay: Coronary effluent and synaptosome supernatant will be assayed for NE by HPLC with electrochemical detection (ESA). […]

guinea-pig hearts = assay: ischemia-reperfusion in guinea pig hearts ex vivo (Langendorff); details: 20-min global ischemia, 45-min reperfusion, lodoxamide 10 μM; for ventricular fibrillation during reperfusion: BILA2157 100 nM
Method: Ischemia-reperfusion in guinea pig hearts ex vivo: Guinea-pig hearts will be perfused for 30 min prior to ischemia. Inamura et al., Circ. Res. 78: 475-481 (1996). Normothermic 20-min global ischemia will be induced by complete cessation of coronary perfusion, followed by 45-min reperfusion. Coronary effluent will be assayed for renin activity and NE.
Guinea-pig hearts were perfused ex vivo at constant pressure in a Langendorff apparatus and subjected to 20-min. stop-flow global ischemia, followed by 45-min. reperfusion (Hatta, E., R. Maruyama, S. J. Marshall, M. Imamura, and R. Levi. Bradykinin promotes ischemic norepinephrine release in guinea pig and human hearts. J. Pharmacol. Exp. Ther. 288: 919-927 (1999)). Surface ECG and coronary flow were continuously monitored; the coronary effluent was assayed for renin activity (i.e., ANG I generated as described herein). There was no detectable renin in the coronary effluent prior to ischemia. With reperfusion, there was significant renin overflow into the coronary effluent accompanied by ventricular fibrillation (VF) (FIG. 12).
Traces in the left panels were recorded at the end of the equilibration period prior to ischemia, showing normal sinus rhythm.

[6] = tested on: isolated normoxic guinea pig hearts; assay: chronotropic response and norepinephrine overflow in normoxic isolated hearts challenged with 48/80; details: BILA 2157 100 nM, lodoxamide 30 μM
Description: These findings indicate that cardiac mast cells are capable of releasing active renin, which then leads to local formation of ANG II causing norepinephrine exocytosis.

cardiac mast cells = assay: renin in coronary effluent of normoxic Langendorff-perfused hearts challenged with 48/80; set-up: species or system guinea pig; details: lodoxamide 10 μM or BILA 2157 100 nM prior to 48/80
Method: Renin was measured in the coronary effluent of normoxic Langendorff-perfused guinea-pig hearts, ex vivo. […] When hearts were perfused with the mast-cell stabilizer lodoxamide (FIG. 9B) or the renin inhibitor BILA2157 prior to 48/80 challenge (FIGS. 9A and B), renin overflow was abolished.

Na+/H+ exchanger [7] = assay: Na+/H+ exchanger activity (acid pulse protocol) in cardiac sympathetic nerve endings; assay type: cell-based, guinea pig; details: angiotensin II 10 nM; for increase in Na+/H+ exchanger activity over control: norepinephrine 1 μM
Method: Na^+/H^+ exchanger activity was assayed by measuring the rate of Na^+-dependent intracellular alkalinization in response to an acid load (NH4Cl). An example of the “acid pulse protocol” used to show Na^+/H^+exchanger activity in dye-loaded (BCECF-loaded) sympathetic nerve endings from guinea pig heart is shown in FIG. 18A. This protocol was performed under HEPES-buffered conditions. All of the solutions perfusing the tissue were osmotically balanced using N-methyl-D-glucamine substitution as previously described (Silver et al., Am. J. Physiol. Renal Physiol. 279: F195-F202, 2000; Silver et al., Am. J. Physiol. 275: F94-102, 1998). As shown in the representative tracing in FIG. 18A, guinea-pig heart sympathetic nerve endings, attached to a cover slip and pre-loaded with BCECF to monitor intracellular pH, were initially bathed in a balanced salt solution (Na Ringer's solution).
The slope of this alkalinization of Na^+/H^+ exchanger activity, represented by the dashed line in FIG. 18A, was 0.04 pH units/min. […] Mean Na^+/H^+ exchanger activities measured in cardiac sympathetic nerve endings in this pilot study are compared in FIG. 18C.

For `CC(=O)OCOC(=O)CN(CC(=O)OCOC(C)=O)c1ccccc1OCCOc1ccccc1N(CC(=O)OCOC(C)=O)CC(=O)OCOC(C)=O` [BAPTA-AM], which “effect on angiotensin II-induced increase in Na+/H+ exchanger activity” value (Na+/H+ exchanger [1]; 10 μM prior to angiotensin II 10 nM) is on record?
The value was “prevented”.

For `CNCCCN1c2ccccc2CCc2ccccc21` [DMI, desipramine], which “decrease of angiotensin II-induced norepinephrine release” value [2] is on record?
Its value is “about 50%”.

And the “effect on norepinephrine release induced by angiotensin II (FIG. 20)” value ([2]; angiotensin II 100 nM)?
The value was “blocked”.

Which results are given for `CCN(c1nc(N)c(C(=O)N=C(N)N)nc1Cl)C(C)C` [EIPA, 5-(N-ethyl-N-isopropyl)-amiloride]?
decrease of angiotensin II-induced norepinephrine release [2]: about 50%; effect on norepinephrine release induced by angiotensin II (FIG. 20) ([2]; angiotensin II 100 nM): blocked

With `CCCCCCCCCCCCCC(=O)O[C@@H]1[C@@H](C)[C@@]2(O)[C@@H](C=C(CO)C[C@]3(O)C(=O)C(C)=C[C@@H]23)[C@@H]2C(C)(C)[C@]12OC(C)=O` [PMA, phorbol 12-myristate 13-acetate] as the molecule, how does the “increase in the releasing effect of angiotensin II” value (SH-SY5Y-AT1A cells [3]; 8-min incubation with PMA) read?
Its value is 3 fold.

What does the source list for `COc1ccc2c(c1)CC[C@@H]1[C@@H]2CC[C@]2(C)[C@@H](NCCCCCCN3C(=O)C=CC3=O)CC[C@@H]12` [U-73122]?
decrease of angiotensin II-induced norepinephrine release [2]: about 60%; effect on norepinephrine release induced by angiotensin II (FIG. 20) ([2]; angiotensin II 100 nM): blocked; effect on angiotensin II-induced intracellular calcium transient (SH-SY5Y-AT1A cells [4]; U-73122 1 μM): prevented

For `CC(=O)OC[C@H]1O[C@@H]([S-])[C@H](OC(C)=O)[C@@H](OC(C)=O)[C@@H]1OC(C)=O.CCP(CC)CC.[Au+]` [auranofin], which “inhibition of human lung mast cell release (histamine)” value (“inhibition” below) (human lung mast cells) is on record?
Its value is “inhibited”.

With `O=C(O)c1cc(=O)c2c(OCC(O)COc3cccc4oc(C(=O)O)cc(=O)c34)cccc2o1` [disodium cromoglycate] as the molecule, how does the “inhibition” value (human lung mast cells) read?
Its value is “poorly inhibit”.

For `C[C@H](N[C@@H](CCc1ccccc1)C(=O)O)C(=O)N1CCC[C@H]1C(=O)O` [enalaprilat], which “effect on 48/80 potentiation of norepinephrine release” value ([5]; nerve endings incubated with BILA2157 10 nM, enalaprilat 30 nM or EXP 3174 10 nM) is on record?
The value was “abolished”.

Which “inhibition” value (human lung mast cells) does the source give for `CC(Cc1ccc(O)cc1)NCC(O)c1cc(O)cc(O)c1` (stereo not drawn) [fenoterol] here?
Its value is “most potent global inhibitors”.

What does the source list for `N#Cc1cc(NC(=O)C(=O)O)c(Cl)c(NC(=O)C(=O)O)c1` [lodoxamide]?
ventricular fibrillation during reperfusion (guinea-pig hearts): no ventricular fibrillation; also recorded: prevent ventricular fibrillation; ventricular fibrillation during reperfusion (guinea-pig hearts; listed as Lodoxamide): prevented ventricular fibrillation; renin overflow into coronary effluent on reperfusion (guinea-pig hearts; BILA 2157 100 nM): no such increase occurs; also recorded: disappeared from the coronary effluent; also recorded: prevented renin release; chronotropic response to 48/80 [6]: markedly abbreviated; also recorded: diminishes the chronotropic response; renin overflow into coronary effluent after 48/80 challenge (cardiac mast cells): abolished; also recorded: markedly diminished; norepinephrine release when hearts perfused with stabilizer prior to 48/80 ([5]; lodoxamide 10 μM): markedly attenuated

For `CCCc1c2oc(C(=O)O)cc(=O)c2cc2c(=O)cc(C(=O)O)n(CC)c12` [nedocromil sodium], which “inhibition” value (human lung mast cells) is on record?
Its value is “poorly inhibit”.

With `NC[C@H](O)c1ccc(O)c(O)c1` [norepinephrine] as the molecule, how does the “increase in Na+/H+ exchanger activity over control” value (Na+/H+ exchanger [7]) read?
Its value is “about 3 fold”.

Which “increase in Na+-dependent intracellular pH recovery rate” value (Na+/H+ exchanger [1]; angiotensin II 10 nM) does the source give for “angiotensin II (DRVYIHPF; Angiotensin-2; UniProt P01019 25-32, looked up)” here?
Its value is 2.5 fold.

And the “increase in norepinephrine release above basal level” value ([2]; angiotensin II 100 nM)?
Its value is 27%.

What about the “intracellular calcium after angiotensin II” value (SH-SY5Y-AT1A cells [4]; angiotensin II 10 nM, from about 60 nM basal) of the same molecule?
The value was 220 nM.

And the “rate of Na+-dependent intracellular alkalinization” value (Na+/H+ exchanger [7]; control 0.04)?
The value was 0.19 pH units/min.

And the “increase in Na+/H+ exchanger activity over control” value (Na+/H+ exchanger [7])?
The value was “about 6 fold”.

What about the “increase in MPP+ release above basal levels” value (SH-SY5Y-AT1A cells [3]; 10-min exposure) of the same molecule?
The value was 20%.
